Source: patent US20070077202A1, “Histostain composition for endoscope” (PENTAX Corporation, priority 2005, published 2007)

Columns and labels:
large intestine tissue [1] = assay: staining test by perfusion through the heart of a mouse; assay type: in vivo; settings: 1 mg/mL
Procedure: A staining test was carried out with Monascus color (yellow) (1 mg/mL, 2 mL) by perfusion thereof through the heart of a mouse. […] The permeability of stain by this perfusion staining method was higher than the method in which the excised tissue is stained (Example 2) or the method in which colors are injected through the anus (Example 7). […] That is, the well-stained sites were the same as in Examples 7 and 8.
Sodium fluorescein (1 mg/mL) was also examined in the same manner as in Example 9.

large intestine tissue [2] = assay: relative fluorescence brightness estimated from spectral sensitivity of the confocal microscope; assay type: in vivo, mouse; settings: same dye concentration
Procedure: That is, this function can be used for relative estimation of the fluorescence intensity of each of the samples having different brightness levels.
The fluorescence brightness of a sample with Sodium fluorescein relative to Monascus color (yellow), as calculated on the basis of such spectral sensitivity as to give the same degree of fluorescence brightness, was 0.74 times after 10 minutes or 0.84 times after 60 minutes.

mouse large intestine [3] = assay: mouse large intestine staining with xanthomonasin A, excised after 1 minute and 10 minutes; assay type: in vivo; settings: 1 mg/mL saline, 100 μL
Procedure: Mice (ddY, 9-week-old, male) were anesthetized, and 100 μL xanthomonasin A (centrifuged and dried sample, 1 mg/mL saline) was injected via an injection needle into the large intestine lumen for staining. The mouse large intestines were excised after 1 minute and 10 minutes respectively, and the samples were observed under a confocal microscope (TCS SP2).

mouse large intestine [4] = assay: mouse large intestine staining test with purified xanthomonasin A, confocal image; assay type: in vivo; settings: 10 mg/mL saline, 100 μL, 5 minutes
Procedure: Using purified xanthomonasin A in Example 10, a mouse large intestine staining test was carried out. A mouse (ddY, 9-week-old, male) was anesthetized, and 100 μL xanthomonasin A (centrifuged and dried sample, 10 mg/mL saline) was injected via an injection needle into the large intestine lumen for staining. After 5 minutes, the mouse large intestine was excised and its confocal image was taken and observed under a confocal microscope (TCS SP2).

mouse large intestine [5] = assay: mouse large intestine staining test with xanthomonasin A, frozen section observation; assay type: in vivo; settings: 10 mg/mL saline, 100 μL, 5 minutes; 6 μm frozen section
Procedure: Purified xanthomonasin A in Example 10 was used in a mouse large intestine staining test and for observing a frozen section. A mouse (ddY, 11-week-old, male) was anesthetized, and 100 μL xanthomonasin A (centrifuged and dried sample, 10 mg/mL saline) was injected via an injection needle into the large intestine lumen for staining. After 5 minutes, the mouse large intestine was excised, frozen and embedded in OCT compound, and the frozen section thus obtained was cut into thin slices each having a thickness of 6 μm. The thin slices were observed by hematoxylin-eosin staining and also observed for fluorescence by staining with xanthomonasin A.

| Structure (SMILES) | staining of cell nuclei (large intestine tissue [1]) | staining of cells constituting the mucosa (large intestine tissue [1]) | staining of mucus components of goblet cells (large intestine tissue [1]) | fluorescence brightness relative to Monascus color (yellow) (large intestine tissue [2]; after 10 minutes) | fluorescence brightness relative to Monascus color (yellow) (large intestine tissue [2]; after 60 minutes) | stained sites, 1 minute versus 10 minutes (mouse large intestine [3]) | visibility (mouse large intestine [3]; stained for 10 minutes) | quality of sectional images (mouse large intestine [4]) | staining of epithelial cells (mouse large intestine [5]) | staining of muscular plate (mouse large intestine [5]) |
| --- | --- | --- | --- | --- | --- | --- | --- | --- | --- | --- |
| O=C([O-])c1ccccc1-c1c2ccc(=O)cc-2oc2cc([O-])ccc12.[Na+].[Na+] [Sodium fluorescein] | could not be judged | many of the cells constituting the mucosal tissue were stained well | not stained | 0.74 times | 0.84 times |  |  |  |  |  |
| C/C=C/[C@]1(O)Cc2c(oc(O)c2C=O)C2=C(C(=O)CCCCC)C(=O)O[C@@]21C [xanthomonasin A] |  |  |  |  |  | identical in respect of stained sites | could be further improved | very vivid sectional images were obtained | stained relatively excellently | excellently stained |
